Reference: the supplement of paper PMC10627819

Assays:
B. subtilis 168 [1] = experiment: fitness (endpoint OD595 vs no drug) (fraction); higher = more growth
Summary of the method: (§1)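 In 384-well plates at 37 °C, cultures began at OD595 0.01 in 30 µl, with 55 µl used for S. pneumoniae. OD595 readings every 30 min for 14 h were corrected by the first reading. Fitness divides the stationary-phase transition optical density by the robust mean of no-drug control wells. The result is capped at 1.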

S. aureus DSM 20231 [2] = experiment: as above
Summary of the method: as §1

S. aureus Newman [3] = experiment: as above
Summary of the method: as §1

S. pneumoniae D39V [4] = experiment: as above
Summary of the method: as §1

B. subtilis 168 [5] = experiment: Bliss interaction score (quartile over a dose matrix) (fitness difference); higher = more antagonism (negative = synergy)
Summary of the method: (§2)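 Each plate was normalised to the robust mean of its own no-drug wells, using OD595 at entry into stationary phase, with values capped at 1. This normalised growth is the fitness value. The Bliss score is the difference between observed and product-expected fitness, with single-drug fitness inferred from the combination data and quartiles taken over technical, biological and donor/recipient replicates.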

S. aureus DSM 20231 [6] = experiment: as above
Summary of the method: as §2

S. aureus Newman [7] = experiment: as above
Summary of the method: as §2

S. pneumoniae D39V [8] = experiment: as above
Summary of the method: as §2
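For Bliss interaction score (quartile over a dose matrix) in this document: first quartile when negative (synergy) and third quartile when positive (antagonism).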

COc1cccc2c1C(=O)c1c(O)c3c(c(O)c1C2=O)C[C@@](O)(C(=O)CO)C[C@@H]3O[C@H]1C[C@H](N)[C@H](O)[C@H](C)O1 [Doxorubicin] + CCN(CC)CCOC(=O)c1ccc(N)cc1 [Procaine]
fitness
Conditions	first compound 0.25 µg/mL	first compound 0.5 µg/mL	first compound 0.625 µg/mL	first compound 1 µg/mL	first compound 1.25 µg/mL	first compound 2.5 µg/mL
B. subtilis 168 [1], partner 85.5 µg/mL	–	–	0.934	–	0.89	0.672
B. subtilis 168 [1], partner 171 µg/mL	–	–	0.961	–	0.894	0.654
B. subtilis 168 [1], partner 342 µg/mL	–	–	0.887	–	0.879	0.702
S. aureus DSM 20231 [2], partner 85.5 µg/mL	–	–	0.829	–	0.823	0.748
S. aureus DSM 20231 [2], partner 171 µg/mL	–	–	0.926	–	0.916	0.832
S. aureus DSM 20231 [2], partner 342 µg/mL	–	–	0.898	–	0.866	0.804
S. aureus Newman [3], partner 85.5 µg/mL	–	–	0.801	–	0.823	0.745
S. aureus Newman [3], partner 171 µg/mL	–	–	0.79	–	0.835	0.752
S. aureus Newman [3], partner 342 µg/mL	–	–	0.815	–	0.747	0.764
S. pneumoniae D39V [4], partner 85.5 µg/mL	0.988	≥ 1	–	0.917	–	–
S. pneumoniae D39V [4], partner 171 µg/mL	0.963	0.98	–	0.892	–	–
S. pneumoniae D39V [4], partner 342 µg/mL	0.97	0.996	–	0.855	–	–

Conditions	Bliss interaction score
B. subtilis 168 [5]	0.095
S. aureus DSM 20231 [6]	-0.0642
S. aureus Newman [7]	-0.058
S. pneumoniae D39V [8]	0.07

Cc1ncc([N+](=O)[O-])n1CCO [Metronidazole] + Cn1nnc(-c2ccc(-c3ccc(N4C[C@H](CO)OC4=O)cc3F)cn2)n1 [Tedizolid]
fitness
Conditions	partner 0.03125 µg/mL	partner 0.0625 µg/mL	partner 0.125 µg/mL	partner 0.25 µg/mL	partner 0.5 µg/mL
S. aureus DSM 20231 [2], first compound 0.625 µg/mL	–	0.966	0.842	–	–
S. aureus DSM 20231 [2], first compound 1.25 µg/mL	–	0.91	0.839	0.552	–
S. aureus DSM 20231 [2], first compound 2.5 µg/mL	–	0.982	0.851	–	–
S. aureus Newman [3], first compound 0.625 µg/mL	–	0.985	0.875	0.521	–
S. aureus Newman [3], first compound 0.781 µg/mL	–	0.954	0.861	–	–
S. aureus Newman [3], first compound 1.25 µg/mL	–	0.948	0.89	0.509	–
S. aureus Newman [3], first compound 1.562 µg/mL	–	0.951	0.88	–	–
S. aureus Newman [3], first compound 2.5 µg/mL	–	0.93	0.874	–	–
S. aureus Newman [3], first compound 3.124 µg/mL	–	0.957	0.866	–	–
S. pneumoniae D39V [4], first compound 1.073 µg/mL	–	–	0.768	0.856	–
S. pneumoniae D39V [4], first compound 1.25 µg/mL	0.959	0.98	0.831	–	–
S. pneumoniae D39V [4], first compound 2.145 µg/mL	–	–	0.807	0.845	0.255
S. pneumoniae D39V [4], first compound 2.5 µg/mL	0.974	0.998	0.85	–	–
S. pneumoniae D39V [4], first compound 4.29 µg/mL	–	–	0.814	0.838	0.259
S. pneumoniae D39V [4], first compound 5 µg/mL	0.958	0.971	0.85	–	–

Conditions	Bliss interaction score
B. subtilis 168 [5]	-0.0352
S. aureus DSM 20231 [6]	0.0997
S. aureus Newman [7]	0.105
S. pneumoniae D39V [8]	-0.0886

CO/N=C(\C(=O)N[C@@H]1C(=O)N2C(C(=O)O)=C(COC(C)=O)CS[C@H]12)c1csc(N)n1 [Cefotaxime] + CN[C@H](CC(C)C)C(=O)N[C@H]1C(=O)N[C@@H](CC(N)=O)C(=O)N[C@H]2C(=O)N[C@H]3C(=O)N[C@H](C(=O)N[C@H](C(=O)O)c4cc(O)cc(O)c4-c4cc3ccc4O)[C@H](O)c3ccc(c(Cl)c3)Oc3cc2cc(c3O[C@@H]2O[C@H](CO)[C@@H](O)[C@H](O)[C@H]2O[C@H]2C[C@](C)(N)[C@H](O)[C@H](C)O2)Oc2ccc(cc2Cl)[C@H]1O [Vancomycin]
Conditions	fitness
S. aureus DSM 20231 [2], first compound 0.039 µg/mL, partner 0.1875 µg/mL	0.791
S. aureus DSM 20231 [2], first compound 0.039 µg/mL, partner 0.375 µg/mL	0.78
S. aureus DSM 20231 [2], first compound 0.039 µg/mL, partner 0.75 µg/mL	0.805
S. aureus DSM 20231 [2], first compound 0.078 µg/mL, partner 0.1875 µg/mL	0.715
S. aureus DSM 20231 [2], first compound 0.078 µg/mL, partner 0.375 µg/mL	0.795
S. aureus DSM 20231 [2], first compound 0.078 µg/mL, partner 0.75 µg/mL	0.752
S. aureus DSM 20231 [2], first compound 0.156 µg/mL, partner 0.1875 µg/mL	0.629
S. aureus DSM 20231 [2], first compound 0.156 µg/mL, partner 0.375 µg/mL	0.698
S. aureus DSM 20231 [2], first compound 0.156 µg/mL, partner 0.75 µg/mL	0.772
S. aureus DSM 20231 [2], first compound 0.312 µg/mL, partner 0.1875 µg/mL	0.641
S. aureus DSM 20231 [2], first compound 0.312 µg/mL, partner 0.375 µg/mL	0.733
S. aureus DSM 20231 [2], first compound 0.312 µg/mL, partner 0.75 µg/mL	0.82
S. aureus Newman [3], first compound 0.078 µg/mL, partner 0.1875 µg/mL	0.723
S. aureus Newman [3], first compound 0.078 µg/mL, partner 0.375 µg/mL	0.758
S. aureus Newman [3], first compound 0.078 µg/mL, partner 0.75 µg/mL	0.761
S. aureus Newman [3], first compound 0.156 µg/mL, partner 0.1875 µg/mL	0.62
S. aureus Newman [3], first compound 0.156 µg/mL, partner 0.375 µg/mL	0.648
S. aureus Newman [3], first compound 0.156 µg/mL, partner 0.75 µg/mL	0.614
S. aureus Newman [3], first compound 0.625 µg/mL, partner 0.1875 µg/mL	0.0427
S. aureus Newman [3], first compound 0.625 µg/mL, partner 0.375 µg/mL	0.0413
S. aureus Newman [3], first compound 0.625 µg/mL, partner 0.75 µg/mL	0.0855
S. aureus Newman [3], first compound 1.25 µg/mL, partner 0.1875 µg/mL	0.0418
S. aureus Newman [3], first compound 1.25 µg/mL, partner 0.375 µg/mL	0.0511
S. aureus Newman [3], first compound 1.25 µg/mL, partner 0.75 µg/mL	0.0481
S. aureus Newman [3], first compound 2.5 µg/mL, partner 0.1875 µg/mL	0.036
S. aureus Newman [3], first compound 2.5 µg/mL, partner 0.375 µg/mL	0.0526
S. aureus Newman [3], first compound 2.5 µg/mL, partner 0.75 µg/mL	0.0388
S. pneumoniae D39V [4], first compound 0.0018 µg/mL, partner 0.03125 µg/mL	≥ 1
S. pneumoniae D39V [4], first compound 0.0018 µg/mL, partner 0.0625 µg/mL	0.892
S. pneumoniae D39V [4], first compound 0.0018 µg/mL, partner 0.125 µg/mL	0.907
S. pneumoniae D39V [4], first compound 0.0018 µg/mL, partner 0.25 µg/mL	0.909
S. pneumoniae D39V [4], first compound 0.0018 µg/mL, partner 0.5 µg/mL	0.0621
S. pneumoniae D39V [4], first compound 0.0035 µg/mL, partner 0.03125 µg/mL	0.94
S. pneumoniae D39V [4], first compound 0.0035 µg/mL, partner 0.0625 µg/mL	0.803
S. pneumoniae D39V [4], first compound 0.0035 µg/mL, partner 0.25 µg/mL	0.793
S. pneumoniae D39V [4], first compound 0.0035 µg/mL, partner 0.5 µg/mL	0.047
S. pneumoniae D39V [4], first compound 0.007 µg/mL, partner 0.25 µg/mL	0.257
S. pneumoniae D39V [4], first compound 0.007 µg/mL, partner 0.5 µg/mL	0.0521

fitness, S. aureus Newman [3], one replicate
Conditions	partner 0.1875 µg/mL	partner 0.375 µg/mL	partner 0.75 µg/mL
first compound 0.039 µg/mL	0.732	0.867	0.784
first compound 0.312 µg/mL	0.34	0.353	0.395

Conditions	Bliss interaction score
B. subtilis 168 [5]	-0.0945
S. aureus DSM 20231 [6]	-0.0428
S. aureus Newman [7]	-0.0425
S. pneumoniae D39V [8]	-0.084
